The source of these data is patent US10508085B2, “Compounds and methods for IDO and TDO modulation, and indications therefor” (Plexxikon Inc., priority 2016, dated 2019).

Experiment [1] has as its target T1, Human Tryptophan 2,3-dioxygenase (TDO) (Homo sapiens, UniProt P48775).
T1 construct: His tag (N); made in house; host or cells: E. coli
As to the kind of experiment: Human TDO enzymatic assay (kynurenine level). It counts as biochemical. The following applies: 1 nM TDO, 350 μM L-Trp; geometric mean; read-out: TDO GMean: IC50 (μM) (Biochemical Assay). The essentials:
(§1)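 IDO conditions: 6 nM His-IDO, 10 μM L-Trp, 5 μM methylene blue, 20 min, RT. TDO conditions: 1 nM His-TDO, 350 μM L-Trp, 0.4 μM methylene blue, 70 min, RT. Both used pH 6.5 phosphate plus ascorbate/catalase, TCA stop at 50° C, kynurenine readout, nonlinear-regression IC50.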

Experiment [2] deals with T2, Human Indoleamine 2,3-dioxygenase (IDO) (Homo sapiens, UniProt P14902).
T2 construct: His tag (N); made in house; host or cells: E. coli
T2 sequence (P14902 whole entry): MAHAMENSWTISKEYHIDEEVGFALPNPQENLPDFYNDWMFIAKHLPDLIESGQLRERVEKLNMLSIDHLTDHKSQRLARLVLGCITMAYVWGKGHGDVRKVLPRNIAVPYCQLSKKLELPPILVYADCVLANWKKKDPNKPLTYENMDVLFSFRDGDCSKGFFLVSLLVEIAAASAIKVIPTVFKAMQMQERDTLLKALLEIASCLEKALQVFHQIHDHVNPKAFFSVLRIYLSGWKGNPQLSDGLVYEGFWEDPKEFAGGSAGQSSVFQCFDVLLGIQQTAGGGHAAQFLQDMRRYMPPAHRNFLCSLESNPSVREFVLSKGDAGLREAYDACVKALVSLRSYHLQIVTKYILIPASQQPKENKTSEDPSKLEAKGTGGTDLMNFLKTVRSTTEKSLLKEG
Kind of experiment: Human IDO enzymatic assay (kynurenine level). The experiment is classed as biochemical. The following applies: 6 nM IDO, 10 μM L-Trp; geometric mean; read-out: IDO1 GMean: IC50 (μM) (Biochemical Assay). Summed up: as §1

The target in experiment [3] is T3, human IDO (IDO1-expressing HEK293 cells) (Homo sapiens, UniProt P14902).
T3 construct: expressed in transfected cells
T3 sequence (P14902 whole entry): as above
As to the kind of experiment: Cell based kynurenine assay, IDO1-expressing HEK293 cell clones. The following applies: IDO1-expressing HEK293 cells, 24 hours incubation; geometric mean; read-out: HEK293 IDO1 Kynurenine GMean IC50 (μM) (Cellular Assay). Summed up: (§2)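 Steps: seed IDO1- or TDO-expressing HEK293 cells at 2.5×10^4 per well; add compound dilutions; incubate 24 h; transfer supernatant and determine kynurenine; derive IC50 via nonlinear regression of percent inhibition.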

Experiment [4] deals with T4, human TDO (TDO-expressing HEK293 cells) (Homo sapiens, UniProt P48775).
T4 construct: expressed in transfected cells
T4 sequence (P48775 whole entry): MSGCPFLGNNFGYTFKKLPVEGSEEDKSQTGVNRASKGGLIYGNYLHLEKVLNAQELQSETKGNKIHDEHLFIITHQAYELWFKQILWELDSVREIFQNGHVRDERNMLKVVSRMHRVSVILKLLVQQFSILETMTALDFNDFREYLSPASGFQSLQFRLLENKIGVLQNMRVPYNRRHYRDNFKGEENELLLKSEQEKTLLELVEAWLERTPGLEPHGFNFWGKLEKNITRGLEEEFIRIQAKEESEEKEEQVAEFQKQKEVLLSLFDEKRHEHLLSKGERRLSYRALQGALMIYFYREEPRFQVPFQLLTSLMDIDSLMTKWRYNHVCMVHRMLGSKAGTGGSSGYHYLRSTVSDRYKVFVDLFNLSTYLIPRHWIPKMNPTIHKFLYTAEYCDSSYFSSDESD
As to the kind of experiment: Cell based kynurenine assay, TDO-expressing HEK293 cell clones. The following applies: TDO-expressing HEK293 cells, 24 hours incubation; geometric mean; read-out: HEK293 TDO Kynurenine GMean IC50 (μM) (Cellular Assay). Summed up: as §2

T1 sequence (P48775 whole entry): as above

Take `CS(=O)(=O)N1CCC(C(F)(F)C(O)c2c3c(cc4cn[nH]c24)CC3)CC1` (centres unmarked) [Compound P-0296, 1-(5,6-dihydro-1H-cyclobuta[f]indazol-7-yl)-2,2-difluoro-2-(1-(methylsulfonyl)piperidin-4-yl)ethan-1-ol]: the IC50 in experiment [1] is 0.0001 to 10 µM; in experiment [2], 0.0001 to 10 µM; in experiment [3] it was 0.0001 to 10 µM; in experiment [4], over 10 µM.
In the case of `CC(C)(C1CCS(=O)(=O)CC1)C(O)c1cc(Cl)cc2cn[nH]c12` (centres unmarked) [Compound P-0297, 4-(1-(5-chloro-1H-indazol-7-yl)-1-hydroxy-2-methylpropan-2-yl)tetrahydro-2H-thiopyran 1,1-dioxide], the half-inhibitory concentration (IC50) in experiment [1], in experiment [2], in experiment [3] and in experiment [4] was 0.0001 to 10 µM in each case.
Consider `CC(C)(C1CCS(=O)(=O)CC1)C(O)c1c(F)c(Cl)cc2cn[nH]c12` (centres unmarked) [Compound P-0298, 4-(1-(5-chloro-6-fluoro-1H-indazol-7-yl)-1-hydroxy-2-methylpropan-2-yl)tetrahydro-2H-thiopyran 1,1-dioxide], for which the IC50 in experiment [1], in experiment [2], in experiment [3] and in experiment [4] was 0.0001 to 10 µM each time.
Regarding `OC(c1c(F)c(Cl)cc2cn[nH]c12)C12CCC(F)(CC1)CC2` (centres unmarked) [Compound P-0299, (5-chloro-6-fluoro-1H-indazol-7-yl)(4-fluorobicyclo[2.2.2]octan-1-yl)methanol], the IC50 in experiment [1], in experiment [2], in experiment [3] and in experiment [4] was 0.0001 to 10 µM in each case.
For the compound `CC(=O)N1C2CCC1CC(C(C)(C)C(O)c1c(F)c(Cl)cc3cn[nH]c13)C2` (centres unmarked) [Compound P-0300], the IC50 in experiment [1], in experiment [2], in experiment [3] and in experiment [4] was 0.0001 to 10 µM in each case.
On to `OC(c1c(F)c(Cl)cc2cn[nH]c12)C12CCC(C(F)(F)F)(CC1)CC2` (centres unmarked) [Compound P-0301, (5-chloro-6-fluoro-1H-indazol-7-yl)(4-(trifluoromethyl)bicyclo[2.2.2]octan-1-yl)methanol], for which the concentration for half-maximal inhibition (IC50) in experiment [1], in experiment [2], in experiment [3] and in experiment [4] was 0.0001 to 10 µM throughout.
On to `CC(=O)N1C[C@H]2CC[C@@H](C1)[C@H]2C(F)(F)C(O)c1cc(Cl)cc2cn[nH]c12` (stereo partly drawn) [Compound P-0302, 1-((1R,5S,8s)-8-(2-(5-chloro-1H-indazol-7-yl)-1,1-difluoro-2-hydroxyethyl)-3-azabicyclo[3.2.1]octan-3-yl)ethan-1-one], for which the concentration for half-maximal inhibition (IC50) in experiment [1], in experiment [2], in experiment [3] and in experiment [4] was 0.0001 to 10 µM in each case.
Turning to `CC(=O)N1C[C@H]2CC[C@@H](C1)[C@@H]2C(F)(F)C(O)c1cc(Cl)cc2cn[nH]c12` (stereo partly drawn) [Compound P-0303, 1-((1R,5S,8s)-8-(2-(5-chloro-1H-indazol-7-yl)-1,1-difluoro-2-hydroxyethyl)-3-azabicyclo[3.2.1]octan-3-yl)ethan-1-one], the IC50 in experiment [1], in experiment [2], in experiment [3] and in experiment [4] was 0.0001 to 10 µM throughout.
`CCS(=O)(=O)N1CCC(C(C)(C)C(O)c2cc(Cl)cc3cn[nH]c23)CC1` (centres unmarked) [Compound P-0304, 1-(5-chloro-1H-indazol-7-yl)-2-(1-(ethylsulfonyl)piperidin-4-yl)-2-methylpropan-1-ol]: the IC50 in experiment [1], in experiment [2], in experiment [3] and in experiment [4] was 0.0001 to 10 µM each time.
With `CCCS(=O)(=O)N1CCC(C(C)(C)C(O)c2cc(Cl)cc3cn[nH]c23)CC1` (centres unmarked) [Compound P-0305, 1-(5-chloro-1H-indazol-7-yl)-2-methyl-2-(1-(propylsulfonyl)piperidin-4-yl)propan-1-ol], the IC50 in experiment [1], in experiment [2], in experiment [3] and in experiment [4] was 0.0001 to 10 µM throughout.
On to `CC(C)(C1CCN(S(=O)(=O)C2CC2)CC1)C(O)c1cc(Cl)cc2cn[nH]c12` (centres unmarked) [Compound P-0306], for which the IC50 in experiment [1], in experiment [2], in experiment [3] and in experiment [4] was 0.0001 to 10 µM each time.
Turning to `CC(C)S(=O)(=O)N1CCC(C(C)(C)C(O)c2cc(Cl)cc3cn[nH]c23)CC1` (centres unmarked) [Compound P-0307, 1-(5-chloro-1H-indazol-7-yl)-2-(1-(isopropylsulfonyl)piperidin-4-yl)-2-methylpropan-1-ol], the half-inhibitory concentration (IC50) in experiment [1], in experiment [2], in experiment [3] and in experiment [4] was 0.0001 to 10 µM in each case.
As to `CN(C)S(=O)(=O)N1CCC(C(C)(C)C(O)c2cc(Cl)cc3cn[nH]c23)CC1` (centres unmarked) [Compound P-0308, 4-(1-(5-chloro-1H-indazol-7-yl)-1-hydroxy-2-methylpropan-2-yl)-N,N-dimethylpiperidine-1-sulfonamide], the IC50 in experiment [1], in experiment [2], in experiment [3] and in experiment [4] was 0.0001 to 10 µM throughout.
As for `CC(C)(C1CCN(S(=O)(=O)c2ccccc2)CC1)C(O)c1cc(Cl)cc2cn[nH]c12` (centres unmarked) [Compound P-0309, 1-(5-chloro-1H-indazol-7-yl)-2-methyl-2-(1-(phenylsulfonyl)piperidin-4-yl)propan-1-ol], the half-maximal inhibitory concentration (IC50) in experiment [1], in experiment [2], in experiment [3] and in experiment [4] was 0.0001 to 10 µM each time.
As for `CC(=O)N1CCC(C(C)(C)C(O)c2cc(Cl)cc3cn[nH]c23)CC1` (centres unmarked) [Compound P-0310, 1-(4-(1-(5-chloro-1H-indazol-7-yl)-1-hydroxy-2-methylpropan-2-yl)piperidin-1-yl)ethan-1-one], the 50% inhibitory concentration (IC50) in experiment [1], in experiment [2], in experiment [3] and in experiment [4] was 0.0001 to 10 µM each time.
For `CCC(=O)N1CCC(C(C)(C)C(O)c2cc(Cl)cc3cn[nH]c23)CC1` (centres unmarked) [Compound P-0311, 1-(4-(1-(5-chloro-1H-indazol-7-yl)-1-hydroxy-2-methylpropan-2-yl)piperidin-1-yl)propan-1-one], the 50% inhibitory concentration (IC50) in experiment [1], in experiment [2], in experiment [3] and in experiment [4] was 0.0001 to 10 µM in each case.
`CC(C)(C1CCN(C(=O)C2CC2)CC1)C(O)c1cc(Cl)cc2cn[nH]c12` (centres unmarked) [Compound P-0312, (4-(1-(5-chloro-1H-indazol-7-yl)-1-hydroxy-2-methylpropan-2-yl)piperidin-1-yl)(cyclopropyl) methanone]: the IC50 in experiment [1], in experiment [2], in experiment [3] and in experiment [4] was 0.0001 to 10 µM throughout.
`CNC(=O)N1CCC(C(C)(C)C(O)c2cc(Cl)cc3cn[nH]c23)CC1` (centres unmarked) [Compound P-0314, 4-(1-(5-chloro-1H-indazol-7-yl)-1-hydroxy-2-methylpropan-2-yl)-N-methylpiperidine-1-carboxamide]: the half-maximal inhibitory concentration (IC50) in experiment [1], in experiment [2], in experiment [3] and in experiment [4] was 0.0001 to 10 µM throughout.
As to `CC(C)NC(=O)N1CCC(C(C)(C)C(O)c2cc(Cl)cc3cn[nH]c23)CC1` (centres unmarked) [Compound P-0315, 4-(1-(5-chloro-1H-indazol-7-yl)-1-hydroxy-2-methylpropan-2-yl)-N-isopropylpiperidine-1-carboxamide], the half-maximal inhibitory concentration (IC50) in experiment [1], in experiment [2], in experiment [3] and in experiment [4] was 0.0001 to 10 µM each time.
As to `CC(C)(C1CCN(C(=O)NC2CCCC2)CC1)C(O)c1cc(Cl)cc2cn[nH]c12` (centres unmarked) [Compound P-0316, 4-(1-(5-chloro-1H-indazol-7-yl)-1-hydroxy-2-methylpropan-2-yl)-N-cyclopentylpiperidine-1-carboxamide], the IC50 in experiment [1], in experiment [2], in experiment [3] and in experiment [4] was 0.0001 to 10 µM each time.
As for `CC(C)(C1CCN(C(=O)Nc2ccccc2)CC1)C(O)c1cc(Cl)cc2cn[nH]c12` (centres unmarked) [Compound P-0317, 4-(1-(5-chloro-1H-indazol-7-yl)-1-hydroxy-2-methylpropan-2-yl)-N-phenylpiperidine-1-carboxamide], the IC50 in experiment [1], in experiment [2], in experiment [3] and in experiment [4] was 0.0001 to 10 µM in each case.
Consider `CN1CCC(C(C)(C)C(O)c2cc(Cl)cc3cn[nH]c23)CC1` (centres unmarked) [Compound P-0318, 1-(5-chloro-1H-indazol-7-yl)-2-methyl-2-(1-methylpiperidin-4-yl)propan-1-ol], for which the IC50 in experiment [1], in experiment [2], in experiment [3] and in experiment [4] was 0.0001 to 10 µM in each case.
Take `CC(C)(C1CCN(C2CC2)CC1)C(O)c1cc(Cl)cc2cn[nH]c12` (centres unmarked) [Compound P-0319, 1-(5-chloro-1H-indazol-7-yl)-2-(1-cyclopropylpiperidin-4-yl)-2-methylpropan-1-ol]: the IC50 in experiment [1], in experiment [2], in experiment [3] and in experiment [4] was 0.0001 to 10 µM in each case.
